Consider 22 compounds from ChEMBL document CHEMBL4196140, “Spiro-Phthalides and Isocoumarins Isolated from the Marine-Sponge-Derived Fungus Setosphaeria sp. SCSIO41009” (J Nat Prod, 2018).

SMILES strings stand for the structures. Calls of active or inactive are those of the source. The calls are words filed in the database; no cut-off is given here.

The subject of the assay is Influenza A virus. The experiment in a line: Antiviral activity against Influenza A virus (A/Puerto Rico/8/34(H1N1)) harboring H274Y mutant infected in MDCK cells assessed as inhibition of virus-induced cytopathic effect after 48 hrs by MTT assay. In kind it is functional, organism-based. To be noted: A/Puerto Rico/8/1934(H1N1). A general note: Cytopathic effects are the visible damage that an infection or toxin causes in cultured cells.
For `CCCC(=O)CC[C@H]1OC(=O)c2c1cc(O)c(OC)c2O`, the inhibition result was “inactive”.
As for `CCC[C@H]1C[C@H](O)[C@]2(OC(=O)c3c2cc(OC)c(OC)c3O)O1`, the entry is “inactive”; as for `COc1cc2c(c(O)c1OC)C(=O)O[C@@H]1C[C@H](CCCO)O[C@H]21`, “inactive”.
Take `CCC[C@H]1C[C@H](O)[C@@]2(OC(=O)c3c2cc(OC)c(OC)c3O)O1`: the inhibition entry was “inactive”.
As for `CCCCOCc1c(O)cc(C)c2c1Oc1c(C)cc(O)c(C)c1OC2=O`, the entry is “inactive”; as for `CCCCc1c(OC)cc(=O)oc1CO`, “inactive”.
In the case of `CC[C@H](O)[C@H]1C[C@H]2OC(=O)c3c(cc(OC)c(OC)c3O)[C@H]2O1`, the inhibition entry was “inactive”.
In the case of `CCC(O)Cc1c(OC)cc(=O)oc1C` (configuration not stated), the inhibition result was “inactive”.
Take `CCCC(=O)CC[C@@H]1OC(=O)c2c1cc(OC)c(OC)c2O`: the inhibition result is “inactive”.
As for `COC(=O)CCCc1c(OC)cc(=O)oc1C`, the inhibition result is “inactive”.
To `CCC[C@@H]1C[C@H]2OC(=O)c3c(cc(OC)c(OC)c3O)[C@@H]2O1` belongs “inactive”; to `CCCCC1=C(OC)C(=O)OC1(C)O` (racemic), “inactive”.
Turning to `COc1cc(=O)oc(C)c1CCCC(=O)O`, the inhibition result is “inactive”.
Take `CCCCc1c(OC)cc(=O)oc1C`: the inhibition entry is “inactive”.
On to `COc1cc2c(c(O)c1OC)C(=O)O[C@@H]1C[C@H](CCC(=O)O)O[C@H]21`, for which the inhibition entry is “inactive”.
As for `COc1cc(=O)oc(C)c1CCC(C)O` (configuration not stated), the inhibition result is “inactive”.
Consider `COCc1c(O)cc(C)c2c1Oc1c(C)cc(O)c(C)c1OC2=O`, for which the inhibition result was “inactive”.
To `CCC[C@H]1C[C@H]2OC(=O)c3c(cc(OC)c(O)c3O)[C@H]2O1` belongs “inactive”; to `CCC[C@H]1C[C@H]2OC(=O)c3c(cc(OC)c(OC)c3O)[C@@H]2O1`, “inactive”.
Take `CCC[C@@H]1C[C@H]2OC(=O)c3c(cc(O)c(OC)c3O)[C@@H]2O1`: the inhibition entry is “inactive”.
As for `COc1cc2c(c(O)c1OC)C(=O)O[C@@H]1C[C@H](C[C@@H](C)O)O[C@H]21`, the entry is “inactive”; as for `CC[C@@H](O)[C@H]1C[C@H]2OC(=O)c3c(cc(OC)c(OC)c3O)[C@H]2O1`, “inactive”.
